According to US20080161366A1, “AMINOALKYL SUBSTITUTED ARYL SULFAMIDE DERIVATIVES AND METHODS OF THEIR USE” (Wyeth, priority 2006, published 2008):
Structures can show the parent of a compound that is named as a salt.

Target: human norepinephrine transporter (hNET) (Homo sapiens, UniProt P23975)
Assay: hNET uptake, Protocol B: cell based norepinephrine reuptake assay using recombinant hNET (MDCK-Net6 cells)
Conditions: for IC50: NE uptake (Protocol B) IC50 (nM), MDCK-Net6 cells, 3H-NE 16 nM; for inhibition at 6 µM: MDCK-Net6, read-out: NE uptake (Protocol B) % inhibition @ 6 uM

human norepinephrine transporter (hNET), sequence (P23975 whole entry): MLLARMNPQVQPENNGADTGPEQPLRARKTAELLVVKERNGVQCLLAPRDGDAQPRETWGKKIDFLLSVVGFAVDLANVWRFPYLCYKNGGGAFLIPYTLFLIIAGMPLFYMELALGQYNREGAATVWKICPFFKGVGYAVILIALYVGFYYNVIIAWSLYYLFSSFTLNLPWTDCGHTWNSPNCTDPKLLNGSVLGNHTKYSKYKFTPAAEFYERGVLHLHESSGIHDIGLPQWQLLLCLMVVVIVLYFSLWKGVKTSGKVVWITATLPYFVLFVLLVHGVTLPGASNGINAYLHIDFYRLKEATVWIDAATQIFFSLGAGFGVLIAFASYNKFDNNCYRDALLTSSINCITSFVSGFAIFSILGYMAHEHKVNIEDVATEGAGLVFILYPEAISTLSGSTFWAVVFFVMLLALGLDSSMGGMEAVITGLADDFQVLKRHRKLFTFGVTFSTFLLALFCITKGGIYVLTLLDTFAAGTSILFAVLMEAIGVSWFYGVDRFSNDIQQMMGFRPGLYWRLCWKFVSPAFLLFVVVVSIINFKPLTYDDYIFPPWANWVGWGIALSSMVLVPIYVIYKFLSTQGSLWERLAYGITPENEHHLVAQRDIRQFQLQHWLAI

Compound	IC50 [nM]	inhibition at 6 µM [%]
O=S1(=O)N(CCCNC2CC2)c2ccccc2N1c1c(F)cccc1F [Example 84, N-{3-[3-(2,6-Difluorophenyl)-2,2-dioxido-2,1,3-benzothiadiazol-1(3H)-yl]propyl}cyclopropanamine hydrochloride]	21	–
O=S1(=O)N(CCCNC2CC2)c2ccccc2N1c1ccc(F)cc1F [Example 85, N-{3-[3-(2,4-Difluorophenyl)-2,2-dioxido-2,1,3-benzothiadiazol-1(3H)-yl]propyl}cyclopropanamine hydrochloride]	203	–
O=S1(=O)N(CCCCNC2CC2)c2ccccc2N1c1c(F)cccc1F [Example 86, N-{4-[3-(2,6-Difluorophenyl)-2,2-dioxido-2,1,3-benzothiadiazol-1(3H)-yl]butyl}cyclopropanamine hydrochloride]	21	–
CNCCCCN1c2ccccc2N(c2ccc(F)cc2Cl)S1(=O)=O [Example 87, 4-[3-(2-chloro-4-fluorophenyl)-2,2-dioxido-2,1,3-benzothiadiazol-1(3H)-yl]-N-methylbutan-1-amine hydrochloride]	82	–
CN(C)CCCCN1c2ccccc2N(c2ccc(F)cc2Cl)S1(=O)=O [Example 88, 4-[3-(2-chloro-4-fluorophenyl)-2,2-dioxido-2,1,3-benzothiadiazol-1(3H)-yl]-N,N-dimethylbutan-1-amine hydrochloride]	–	57
CNCCCCCN1c2ccccc2N(c2ccc(F)cc2Cl)S1(=O)=O [Example 89, 5-[3-(2-chloro-4-fluorophenyl)-2,2-dioxido-2,1,3-benzothiadiazol-1(3H)-yl]-N-methylpentan-1-amine hydrochloride]	2110	–
CN(C)CCCCCN1c2ccccc2N(c2ccc(F)cc2Cl)S1(=O)=O [Example 90, 5-[3-(2-chloro-4-fluorophenyl)-2,2-dioxido-2,1,3-benzothiadiazol-1(3H)-yl]-N,N-dimethylpentan-1-amine hydrochloride]	–	49
CNCCCN1c2ccccc2N(c2ccc(OC)cc2F)S1(=O)=O [Example 91, 3-[3-(2-fluoro-4-methoxyphenyl)-2,2-dioxido-2,1,3-benzothiadiazol-1(3H)-yl]-N-methylpropan-1-amine hydrochloride]	325	–
CNCCCN1c2ccccc2N(c2ccc(O)cc2F)S1(=O)=O [Example 92, 3-fluoro-4-{3-[3-(methylamino)propyl]-2,2-dioxido-2,1,3-benzothiadiazol-1(3H)-yl}phenol hydrochloride]	3	–
CNCCCCN1c2ccccc2N(c2ccc(O)cc2F)S1(=O)=O [Example 93, 3-fluoro-4-{3-[4-(methylamino)butyl]-2,2-dioxido-2,1,3-benzothiadiazol-1(3H)-yl}phenol hydrochloride]	3	–
CNCCCN1c2ccccc2N(c2ccc(Cl)cc2F)S1(=O)=O [Example 95, 3-[3-(4-chloro-2-fluorophenyl)-2,2-dioxido-2,1,3-benzothiadiazol-1(3H)-yl]-N-methylpropan-1-amine]	30	–
O=S1(=O)N(CCCNC2CC2)c2ccccc2N1c1ccccc1 [Example 96, N-[3-(2,2-dioxido-3-phenyl-2,1,3-benzothiadiazol-1(3H)-yl)propyl]cyclopropanamine]	113	–
O=S1(=O)N(CCCNC2CC2)c2ccccc2N1c1ccccc1F [Example 97, N-{3-[3-(2-fluorophenyl)-2,2-dioxido-2,1,3-benzothiadiazol-1(3H)-yl]propyl}cyclopropanamine]	21	–
CNCCCN1c2ccccc2N(c2ccc(Cl)cc2C)S1(=O)=O [Example 100, 3-[3-(4-chloro-2-methylphenyl)-2,2-dioxido-2,1,3-benzothiadiazol-1(3H)-yl]-N-methylpropan-1-amine]	370	–
CNCCCCCCN1c2ccccc2N(c2ccccc2F)S1(=O)=O [Example 101, 6-[3-(2-fluorophenyl)-2,2-dioxido-2,1,3-benzothiadiazol-1(3H)-yl]-N-methylhexan-1-amine]	1160	–
NCCCCCCN1c2ccccc2N(c2ccccc2F)S1(=O)=O [Example 102, 6-[3-(2-fluorophenyl)-2,2-dioxido-2,1,3-benzothiadiazol-1(3H)-yl]hexan-1-amine]	26	–
CN(C)CCCCCCN1c2ccccc2N(c2ccccc2F)S1(=O)=O [Example 103, 6-[3-(2-fluorophenyl)-2,2-dioxido-2,1,3-benzothiadiazol-1(3H)-yl]-N,N-dimethylhexan-1-amine]	1200	–
CNCCCCN1c2ccccc2N(c2ccc(C)cc2F)S1(=O)=O [Example 104, 4-[3-(2-fluoro-4-methylphenyl)-2,2-dioxido-2,1,3-benzothiadiazol-1(3H)-yl]-N-methylbutan-1-amine]	26	–
Cc1ccc(N2c3ccccc3N(CCCCN)S2(=O)=O)c(F)c1 [Example 105, 4-[3-(2-fluoro-4-methylphenyl)-2,2-dioxido-2,1,3-benzothiadiazol-1(3H)-yl]butan-1-amine]	125	–
Cc1ccc(N2c3ccccc3N(CCCCN(C)C)S2(=O)=O)c(F)c1 [Example 106, 4-[3-(2-fluoro-4-methylphenyl)-2,2-dioxido-2,1,3-benzothiadiazol-1(3H)-yl]-N,N-dimethylbutan-1-amine]	591	–
CCNCCCCN1c2ccccc2N(c2ccc(C)cc2F)S1(=O)=O [Example 107, N-ethyl-4-[3-(2-fluoro-4-methylphenyl)-2,2-dioxido-2,1,3-benzothiadiazol-1(3H)-yl]butan-1-amine]	582	–

The remaining lines, values ahead:

IC50 [nM]	inhibition at 6 µM [%]	Compound
4	–	CNCCCN1c2ccccc2N(c2ccc(C)cc2F)S1(=O)=O [Example 108, 3-[3-(2-fluoro-4-methylphenyl)-2,2-dioxido-2,1,3-benzothiadiazol-1(3H)-yl]-N-methylpropan-1-amine]
20	–	CNCCCN1c2ccccc2N(c2ccc(F)c(F)c2)S1(=O)=O [Example 109, 3-[3-(3,4-difluorophenyl)-2,2-dioxido-2,1,3-benzothiadiazol-1(3H)-yl]-N-methylpropan-1-amine]
39	–	CNCCCCN1c2ccccc2N(c2ccc(F)c(F)c2)S1(=O)=O [Example 110, 4-[3-(3,4-difluorophenyl)-2,2-dioxido-2,1,3-benzothiadiazol-1(3H)-yl]-N-methylbutan-1-amine]
–	0	O=S1(=O)N(CCCNCC(F)(F)F)c2ccccc2N1c1ccc(F)c(F)c1 [Example 111, 3-[3-(3,4-difluorophenyl)-2,2-dioxido-2,1,3-benzothiadiazol-1(3H)-yl]-N-(2,2,2-trifluoroethyl)propan-1-amine]
2770	–	CCNCCCN1c2ccccc2N(c2ccc(F)c(F)c2F)S1(=O)=O [Example 112, 3-[2,2-dioxido-3-(2,3,4-trifluorophenyl)-2,1,3-benzothiadiazol-1(3H)-yl]-N-ethylpropan-1-amine]
109	–	CNCCCN1c2ccccc2N(c2ccc(F)c(F)c2F)S1(=O)=O [Example 113, 3-[2,2-dioxido-3-(2,3,4-trifluorophenyl)-2,1,3-benzothiadiazol-1(3H)-yl]-N-methylpropan-1-amine]
11	–	CNCCCN1c2ccccc2N(c2ccc(F)cc2F)S1(=O)=O [Example 114, 3-[3-(2,4-difluorophenyl)-2,2-dioxido-2,1,3-benzothiadiazol-1(3H)-yl]-N-methylpropan-1-amine hydrochloride]
61	–	CNCCCCCN1c2ccccc2N(c2ccc(F)cc2F)S1(=O)=O [Example 115, 5-[3-(2,4-difluorophenyl)-2,2-dioxido-2,1,3-benzothiadiazol-1(3H)-yl]-N-methylpentan-1-amine hydrochloride]
7190	–	CN(C)CCCCCN1c2ccccc2N(c2ccc(F)cc2F)S1(=O)=O [Example 117, 5-[3-(2,4-difluorophenyl)-2,2-dioxido-2,1,3-benzothiadiazol-1(3H)-yl]-N,N-dimethylpentan-1-amine hydrochloride]
153	–	CN(C)CCCN1c2ccccc2N(c2ccc(F)cc2F)S1(=O)=O [Example 118, 3-[3-(2,4-difluorophenyl)-2,2-dioxido-2,1,3-benzothiadiazol-1(3H)-yl]-N,N-dimethylpropan-1-amine hydrochloride]
77	–	CCNCCCN1c2ccccc2N(c2ccc(F)cc2F)S1(=O)=O [Example 119, 3-[3-(2,4-difluorophenyl)-2,2-dioxido-2,1,3-benzothiadiazol-1(3H)-yl]-N-ethylpropan-1-amine hydrochloride]
411	–	CN(C)CCCCN1c2ccccc2N(c2ccc(F)cc2F)S1(=O)=O [Example 120, 4-[3-(2,4-difluorophenyl)-2,2-dioxido-2,1,3-benzothiadiazol-1(3H)-yl]-N,N-dimethylbutan-1-amine hydrochloride]
1500	–	CCNCCCCN1c2ccccc2N(c2ccc(F)cc2F)S1(=O)=O [Example 121, 4-[3-(2,4-difluorophenyl)-2,2-dioxido-2,1,3-benzothiadiazol-1(3H)-yl]-N-ethylbutan-1-amine hydrochloride]
48	–	CCNCCCCN1c2ccccc2N(c2c(F)cccc2F)S1(=O)=O [Example 122, 4-[3-(2,6-difluorophenyl)-2,2-dioxido-2,1,3-benzothiadiazol-1(3H)-yl]-N-ethylbutan-1-amine hydrochloride]
1170	–	CC(C)NCCCCN1c2ccccc2N(c2c(F)cccc2F)S1(=O)=O [Example 123, 4-[3-(2,6-difluorophenyl)-2,2-dioxido-2,1,3-benzothiadiazol-1(3H)-yl]-N-isopropylbutan-1-amine hydrochloride]
132	–	O=S1(=O)N(CCCCNC2CCC2)c2ccccc2N1c1c(F)cccc1F [Example 124, N-{4-[3-(2,6-difluorophenyl)-2,2-dioxido-2,1,3-benzothiadiazol-1(3H)-yl]butyl}cyclobutanamine hydrochloride]
440	–	O=S1(=O)N(CCCCNC2CCCCC2)c2ccccc2N1c1c(F)cccc1F [Example 125, N-{4-[3-(2,6-difluorophenyl)-2,2-dioxido-2,1,3-benzothiadiazol-1(3-yl]butyl}cyclohexanamine hydrochloride]
